Laboratory results as given in patent US6641797B2, “Perfluoroalkyl-containing complexes with sugar radicals, process for their production and their use” (Schering Aktiengesellschaft, priority 2000, dated 2003).

Assays:
Format in all cases: in vivo
[1] = tested on: rats with acute induced myocardial infarction; test: Infarction visualization (MRT) after intravenous administration in rats with acute induced myocardial infarction; conditions: 100 μmol of Gd/kg i.v.; 24 hours; T1-weighted spin-echo, 1.5 T; confirmed by NBT staining
Method: Infarction Visualization (MRT) After Intravenous Administration of the Contrast Medium According to the Invention of Example 1 in Rats
MR images were prepared of the heart (in vivo and post mortem) 24 hours after intravenous administration of 100 μmol of Gd/kg of body weight of the title compound of Example 1 in rats with acute induced myocardial infarction. […] The successful indication of an acute myocardial infarction was confirmed using NBT staining.

[2] = tested on: VX2-tumor-carrying rabbits; test: Lymph node visualization (MRT) after intravenous administration in VX2-tumor-carrying rabbits; conditions: 200 μmol of Gd/kg i.v.
Description: Lymph Node Visualization (MRT) After Intravenous Administration of the Contrast Medium According to the Invention of Example 1 in VX2-tumor-carrying Rabbits

[3] = Organ distribution (including tumor and lymph node concentration) after intravenous administration in prostate-cancer-carrying rats; conditions: 225 μmol total Gd/kg i.v.
Description: Organ Distribution (Including Tumor and Lymph Node Concentration) After Intravenous Administration of the Contrast Medium According to the Invention of Example 1 in Prostate-cancer-carrying Rats
After intravenous administration of 225 μmol of total gadolinium/kg of body weight of the title compound of Example 1 in rats (Cop-inbreeding Dunning R3327 MAT-Lu prostate cancer i.m.-implanted 12 days earlier), the metal content in various organs, in tumors and in lymph nodes (pooled as mesenteral and peripheral lymph nodes) was determined 10 minutes, 1 and 24 hours after administration (MW±SD, n=3).

[4] = Intestine (emptied), 10 min p.i.

For `CC(C(=O)NCC(=O)NCCCC[C@H](NC(=O)CO[C@H]1O[C@H](CO)[C@@H](O)[C@H](O)[C@@H]1O)C(=O)N1CCN(S(=O)(=O)C(F)(F)C(F)(F)C(F)(F)C(F)(F)C(F)(F)C(F)(F)C(F)(F)C(F)(F)F)CC1)N1CCN(CC(=O)[O-])CCN(CC(=O)[O-])CCN(CC(=O)[O-])CC1.[Gd+3]` (some centres unmarked) [Example 1], the “MR signal in the infarction area” value [1] was “strong signal rise”, the “MR signal in lymph node metastasis” value ([2]; 24 hours after administration) was “considerable signal rise” and the “MR signal rise in healthy lymph node tissue” value ([2]; 24 hours after administration) was “reduced”. For the same molecule, the “MR enhancement of the primary tumor” value ([2]; 24 hours p.i.) was “enhancement also propagates out from the center of the tumor”, the “MR signal in lymph node metastasis” value ([2]; early after administration, confirmed histologically) was “without a signal rise” and the “MR signal in healthy lymph node tissue” value ([2]; iliac lymph nodes, T1-weighted gradient-echo, 1.5 T, early after administration) was “strong signal rise”. The “MR enhancement of the primary tumor” value ([2]; immediately after administration, especially the periphery) was “considerable enhancement”, the “% Dose per Total Tissue, Balance” value ([3]; Balance, 24 h p.i.) was 94.1 ± 6.41 % Dose and the “% Dose per Total Tissue” value ([3]; Blood (58 ml of blood/kg of body weight), 10 min p.i.) was 42.95 ± 2.59 % Dose. For the same molecule, the “% Dose per Total Tissue” value ([3]; Blood (58 ml of blood/kg of body weight), 1 h p.i.) was 21.47 ± 1.78 % Dose, the “% Dose per Total Tissue” value ([3]; Blood (58 ml of blood/kg of body weight), 24 h p.i.) was 1.78 ± 0.03 % Dose and the Gd-Concentration ([3]; Blood, 10 min p.i.) was 1665 ± 110 µmol/L. For the same molecule, the Gd-Concentration ([3]; Blood, 1 h p.i.) was 825 ± 67 µmol/L, the Gd-Concentration ([3]; Blood, 24 h p.i.) was 214 ± 9 µmol/L and the “% Dose per Total Tissue” value ([3]; Brain, 10 min p.i.) was 0.15 ± 0.03 % Dose. The Gd-Concentration ([3]; Brain, 10 min p.i.) was 47 ± 13 µmol/L, the “% Dose per Total Tissue” value ([3]; Brain, 1 h p.i.) was 0.08 ± 0.02 % Dose and the Gd-Concentration ([3]; Brain, 1 h p.i.) was 26 ± 5 µmol/L. The “% Dose per Total Tissue” value ([3]; Brain, 24 h p.i.) was 0.04 ± 0.00 % Dose, the Gd-Concentration ([3]; Brain, 24 h p.i.) was 14 ± 2 µmol/L and the “% Dose per Total Tissue” value ([3]; Feces 0-24 h) was 21.85 ± 1.46 % Dose. The Gd-Concentration ([3]; Feces 0-24 h) was 3128 ± 204 µmol/L, the “% Dose per Total Tissue” value ([3]; Femur, 10 min p.i.) was 0.65 ± 0.01 % Dose and the Gd-Concentration ([3]; Femur, 10 min p.i.) was 184 ± 4 µmol/L. For the same molecule, the “% Dose per Total Tissue” value ([3]; Femur, 1 h p.i.) was 0.46 ± 0.03 % Dose, the Gd-Concentration ([3]; Femur, 1 h p.i.) was 127 ± 9 µmol/L and the “% Dose per Total Tissue” value ([3]; Femur, 24 h p.i.) was 0.31 ± 0.03 % Dose. The Gd-Concentration ([3]; Femur, 24 h p.i.) was 87 ± 6 µmol/L, the “% Dose per Total Tissue” value ([3]; Heart, 10 min p.i.) was 0.46 ± 0.01 % Dose and the Gd-Concentration ([3]; Heart, 10 min p.i.) was 438 ± 29 µmol/L. The “% Dose per Total Tissue” value ([3]; Heart, 1 h p.i.) was 0.31 ± 0.03 % Dose, the Gd-Concentration ([3]; Heart, 1 h p.i.) was 289 ± 24 µmol/L and the “% Dose per Total Tissue” value ([3]; Heart, 24 h p.i.) was 0.14 ± 0.02 % Dose. For the same molecule, the Gd-Concentration ([3]; Heart, 24 h p.i.) was 131 ± 9 µmol/L, the “% Dose per Total Tissue” value [3, 4] was 2.91 ± 0.18 % Dose and the Gd-Concentration [3, 4] was 342 ± 16 µmol/L. For the same molecule, the “% Dose per Total Tissue” value ([3]; Intestine (emptied), 1 h p.i.) was 3.41 ± 1.02 % Dose, the Gd-Concentration ([3]; Intestine (emptied), 1 h p.i.) was 409 ± 67 µmol/L and the “% Dose per Total Tissue” value ([3]; Intestine (emptied), 24 h p.i.) was 2.14 ± 0.14 % Dose. For the same molecule, the Gd-Concentration ([3]; Intestine (emptied), 24 h p.i.) was 243 ± 22 µmol/L, the “% Dose per Total Tissue” value ([3]; Kidney, 10 min p.i.) was 5.02 ± 1.29 % Dose and the Gd-Concentration ([3]; Kidney, 10 min p.i.) was 2081 ± 537 µmol/L. For the same molecule, the “% Dose per Total Tissue” value ([3]; Kidney, 1 h p.i.) was 2.15 ± 0.23 % Dose, the Gd-Concentration ([3]; Kidney, 1 h p.i.) was 883 ± 94 µmol/L and the “% Dose per Total Tissue” value ([3]; Kidney, 24 h p.i.) was 2.97 ± 0.21 % Dose. For the same molecule, the Gd-Concentration ([3]; Kidney, 24 h p.i.) was 1178 ± 139 µmol/L, the “% Dose per Total Tissue” value ([3]; Liver, 10 min p.i.) was 5.46 ± 0.16 % Dose and the Gd-Concentration ([3]; Liver, 10 min p.i.) was 387 ± 26 µmol/L. For the same molecule, the “% Dose per Total Tissue” value ([3]; Liver, 1 h p.i.) was 5.81 ± 0.16 % Dose, the Gd-Concentration ([3]; Liver, 1 h p.i.) was 364 ± 8 µmol/L and the “% Dose per Total Tissue” value ([3]; Liver, 24 h p.i.) was 11.65 ± 0.97 % Dose. The Gd-Concentration ([3]; Liver, 24 h p.i.) was 746 ± 34 µmol/L and the “% Dose per Total Tissue” value ([3]; Lung, 10 min p.i.) was 1.69 ± 0.06 % Dose.
